Tests used:
[1] = Antagonist activity at CRTh2 receptor in human whole blood assessed as inhibition of PGD2-induced eosinophil shape change after 5 mins by flow cytometry
[2] = Antagonist activity at CRTh2 receptor in human isolated eosinophil assessed as inhibition of eotaxin-induced shape change after 5 mins by flow cytometry
[3] = Antagonist activity at CRTh2 receptor in human isolated eosinophil assessed as inhibition of delta12-PGD2-induced shape change after 5 mins by flow cytometry
[4] = Antagonist activity at CRTh2 receptor in human isolated eosinophil assessed as inhibition of 11-Dehydro-TXB2-induced shape change after 5 mins by flow cytometry
[5] = target: T1, Prostaglandin D2 receptor 2 (Homo sapiens, UniProt Q9Y5Y4); experiment: Antagonist activity at CRTh2 receptor in human isolated eosinophil assessed as inhibition of DK-PGD2-induced shape change after 5 mins by flow cytometry
T1 sequence (Q9Y5Y4 whole entry): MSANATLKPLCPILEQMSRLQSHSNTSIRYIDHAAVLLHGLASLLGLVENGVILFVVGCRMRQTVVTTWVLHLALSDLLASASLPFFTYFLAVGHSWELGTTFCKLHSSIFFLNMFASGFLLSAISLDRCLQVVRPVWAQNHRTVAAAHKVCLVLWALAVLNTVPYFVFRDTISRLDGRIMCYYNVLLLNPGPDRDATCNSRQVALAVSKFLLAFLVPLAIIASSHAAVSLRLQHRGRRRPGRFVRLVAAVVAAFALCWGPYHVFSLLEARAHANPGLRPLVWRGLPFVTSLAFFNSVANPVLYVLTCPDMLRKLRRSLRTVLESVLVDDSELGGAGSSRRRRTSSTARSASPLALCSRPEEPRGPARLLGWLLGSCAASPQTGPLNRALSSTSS

[6] = Antagonist activity at CRTh2 receptor in human isolated eosinophil assessed as inhibition of DK-PGD2-induced shape change after 5 mins by flow cytometry

SMILES: Cc1c(CC(=O)O)c2cccnc2n1Cc1ccc(S(C)(=O)=O)cc1
- IC50 [1]: 102 nM
- IC50 [2]: > 10000 nM
- IC50 [3]: 4 nM
- IC50 [4]: 4 nM

SMILES: Cc1c(CC(=O)O)c2cccnc2n1Cc1ccc([N+](=O)[O-])cc1
- IC50 [5]: 24 nM

SMILES: Cc1c(CC(=O)O)c2cccnc2n1Cc1ccc([S+](C)[O-])cc1 (configuration not stated)
- IC50 [6]: 51 nM

SMILES: Cc1c(CC(=O)O)c2cccnc2n1Cc1ccc(Cl)cc1
- IC50 [6]: 23 nM
